Common to all, as to assay type: in vivo
Assay [1] has as its system black bean aphids (Aphis fabae). The assay can be described thus: Black bean aphid dip test on broad bean (plants and aphids dipped in the preparation). Conditions: 300 ppm (content of active compound), Vicia faba plants and aphids dipped 5 seconds, after 3 and 6 days storage, read-out: mortality among the aphids. Here is the method: Germinated broad bean seeds (Vicia faba) with radicles were transferred into brown glass bottles filled with tap water and subsequently populated with approximately 100 black bean aphids (Aphis fabae). Plants and aphids were then dipped for 5 seconds into an aqueous solution of the formulated preparation to be examined. After the solution had dripped off, plants and animals were kept in a climatized chamber (16 hours of light/day, 25° C., 40-60% relative atmospheric humidity). After 3 and 6 days storage, the effect of the preparation on the aphids was determined. At a concentration of 300 ppm (based on the content of active compound), the preparations of Example Nos. 1/37, 1/78, 1/136, 1/94, 1/174, 1/14, 1/125, 1/187, 1/17, 1/84, 1/52, 1/82, 1/70, 3/74, 1/54, 1/81, 1/42, 3/161, 1/186 effected a mortality of 90-100% among the aphids. (The active compounds are numbered with the Table/No. in the table).

For assay [2] the test system is unchanged. The assay can be described thus: Root-systemic activity against black bean aphids on broad bean. The note with it: 30 ppm (content of active compound), 4 ml solution pipetted into the bottle with Vicia faba, after 3 and 6 days storage, read-out: mortality among the aphids by root-systemic action. The procedure: Germinated broad bean seeds (Vicia faba) with radicles were transferred into brown glass bottles filled with tap water. Four milliliters of an aqueous solution of the formulated preparation to be examined were pipetted into the brown glass bottle. The broad bean was subsequently heavily populated with approximately 100 black bean aphids (Aphis fabae). Plants and animals were then stored in a climatized chamber (16 hours of light/day, 25° C., 40-60% relative atmospheric humidity). After 3 and 6 days storage, the root-systemic activity of the preparation on the aphids was determined. At a concentration of 30 ppm (based on the content of active compound), the preparations of Example Nos. 1/53, 1/26, 1/37, 1/78, 1/136, 1/56, 1/94, 1/174, 1/14, 1/187, 1/84, 1/52, 1/82, 1/70, 1/32, 3/74, 1/54, 1/81, 1/42, 3/227, 3/161 effected a mortality of 90-100% among the aphids by root-systemic action.

The test system of assay [3] is larvae (L3 stage) of the rice leafhopper species Nilaparvata lugens. Put plainly: Rice leafhopper test on dipped rice plants. The note with it: 144 h, 300 ppm (content of active compound), rice leaves dipped 5 seconds, after 6 days storage, read-out: mortality among the leafhopper larvae. Here is the method:
The leaves of 12 rice plants having a stem length of 8 cm were dipped for 5 seconds into an aqueous solution of the formulated preparation to be examined. After the solution had dripped off, the rice plants treated in this manner were placed in a Petri dish and populated with approximately 20 larvae (L3 stage) of the rice leafhopper species Nilaparvata lugens. The Petri dish was closed and stored in a climatized chamber (16 hours of light/day, 25° C., 40-60% relative atmospheric humidity). After 6 days storage, the mortality among the leafhopper larvae was determined. At a concentration of 300 ppm (based on the content of active compound), the preparations of Example Nos. 1/53, 1/26, 1/164, 1/174, 1/82, 1/42 effected a mortality of 90-100%.

Consider two molecules from patent US6555501B1, “4-trifluoromethyl-3-oxazolylpyridines, processes for their preparation, compositions comprising them and their use as pesticides” (Hoechst Schering AgrEvo GmbH, priority 1998, dated 2003).

Regarding `CCCSCc1cnc(-c2cnccc2C(F)(F)F)o1` [1/136, 5-n-Propylthiomethyl-2-(4-trifluoromethyl-3-pyridyl)-oxazole], the mortality at 300 ppm in assay [1] was in the range of 90 to 100%. For the same molecule, the mortality at 30 ppm in assay [2] lay within 90 to 100%. Regarding `O=Cc1cnc(-c2cnccc2C(F)(F)F)o1` [1/164, 5-formyl-2-(4-trifluoromethyl-3-pyridyl)-oxazole], in assay [3], the mortality at 300 ppm was 90 to 100%.
